Among the data in ChEMBL document CHEMBL5247593, “Novel heterocyclic hydroxamates as inhibitors of the mycobacterial zinc metalloprotease Zmp1 to probe its mechanism of function” (Eur J Med Chem, 2022) are inhibition values, retold here.

In this assay the test system is Mycobacterium tuberculosis variant bovis. Briefly: Antimycobacterial activity against Mycobacterium bovis ATCC 35734 assessed as inhibition of bacterial growth at 128 uM measured after 7 days by luminescence based analysis relative to control. Particulars: ATCC 35734, 168 h, time 7 day. It counts as functional.
Broadly, the inhibition is the share of the control response that was lost under treatment. For `CO[C@H]1/C=C/O[C@@]2(C)Oc3c(C)c(O)c4c(O)c(c(/C=N/N5CCN(C)CC5)c(O)c4c3C2=O)NC(=O)/C(C)=C\C=C\[C@H](C)[C@H](O)[C@@H](C)[C@@H](O)[C@@H](C)[C@H](OC(C)=O)[C@@H]1C` [RIFAMPIN], the inhibition at 128 µM stood at 100%. As to `CC(C)C[C@H](NC(=O)CNC(=O)c1cn(CC(=O)NOCc2ccccc2)c2ccccc12)C(=O)O`, the inhibition at 128 µM came out at 33.7%. As for `CC(C)[C@H](NC(=O)CNC(=O)c1ccn(CC(=O)NOCc2ccccc2)c1)C(=O)O`, the inhibition at 128 µM worked out at 8.2%. Then `C=CCONC(=O)Cn1cc(C(=O)NCC(=O)N[C@@H](CC(C)C)C(=O)O)c2ccccc21`, with 18.3%; and `COC(=O)[C@H](CC(C)C)NC(=O)c1cccc(/C=C2\SC(=O)N(CC(=O)NOCc3ccccc3)C2=O)c1`, with 17.2%. `CC(C)[C@H](NC(=O)[C@H](C)NC(=O)c1ccn(CC(=O)NOCc2ccccc2)c1)C(=O)O`: the inhibition at 128 µM is 10.2%. Consider `C=CCONC(=O)Cn1ccc(C(=O)N[C@@H](C)C(=O)N[C@@H](CC(C)C)C(=O)O)c1`, for which the inhibition at 128 µM was 7.3%. Turning to `C=CCONC(=O)Cn1ccc(C(=O)NCC(=O)N[C@@H](CC(C)C)C(=O)O)c1`, the inhibition at 128 µM was found to be 5.2%. With `C=CCONC(=O)CN1C(=O)S/C(=C\c2cccc(C(=O)N[C@H](C(=O)OC)C(C)C)c2)C1=O`, the inhibition at 128 µM was 9.8%. As for `C=CCONC(=O)Cn1cc(C(=O)N[C@@H](C)C(=O)N[C@H](C(=O)O)C(C)C)c2ccccc21`, the inhibition at 128 µM was found to be 18.5%.

As to `CC(C)C[C@H](NC(=O)[C@H](C)NC(=O)c1cn(CC(=O)NOCc2ccccc2)c2ccccc12)C(=O)O`, the inhibition at 128 µM was 7.2%. In the case of `C=CCONC(=O)CN1C(=O)S/C(=C\c2ccc(C(=O)N[C@H](C(=O)OC)C(C)C)cc2)C1=O`, the inhibition at 128 µM was determined as 10.5%. On to `COc1nc2ccc(Br)cc2cc1[C@@H](c1ccccc1)[C@@](O)(CCN(C)C)c1cccc2ccccc12` [BEDAQUILINE], for which the inhibition at 128 µM was 100%.

As to `NNC(=O)c1ccncc1` [ISONIAZID], the inhibition at 128 µM stood at 100%.

As to `CC(C)[C@H](NC(=O)CNC(=O)c1cn(CC(=O)NOCc2ccccc2)c2ccccc12)C(=O)O`, the inhibition at 128 µM is 10.3%.

As for `CC(C)[C@H](NC(=O)[C@H](C)NC(=O)c1cn(CC(=O)NOCc2ccccc2)c2ccccc12)C(=O)O`, the inhibition at 128 µM is 34.2%. On to `C=CCONC(=O)Cn1cc(C(=O)NCC(=O)N[C@H](C(=O)O)C(C)C)c2ccccc21`, for which the inhibition at 128 µM came out at 15.8%. In the case of `COC(=O)[C@H](CC(C)C)NC(=O)c1ccc(/C=C2\SC(=O)N(CC(=O)NOCc3ccccc3)C2=O)cc1`, the inhibition at 128 µM is 14.6%. Turning to `C=CCONC(=O)CN1C(=O)S/C(=C\c2cccc(C(=O)N[C@@H](CC(C)C)C(=O)OC)c2)C1=O`, the inhibition at 128 µM was 9.7%. On to `CC(C)C[C@H](NC(=O)[C@H](C)NC(=O)c1ccn(CC(=O)NOCc2ccccc2)c1)C(=O)O`, for which the inhibition at 128 µM was determined as 25.2%.

Turning to `COC(=O)[C@@H](NC(=O)c1cccc(/C=C2\SC(=O)N(CC(=O)NOCc3ccccc3)C2=O)c1)C(C)C`, the inhibition at 128 µM was 7.2%. Take `CC(C)C[C@H](NC(=O)CNC(=O)c1ccn(CC(=O)NOCc2ccccc2)c1)C(=O)O`: the inhibition at 128 µM came to 9.7%. On to `C=CCONC(=O)CN1C(=O)S/C(=C\c2ccc(C(=O)N[C@@H](CC(C)C)C(=O)OC)cc2)C1=O`, for which the inhibition at 128 µM was 11.3%. With `C=CCONC(=O)Cn1cc(C(=O)N[C@@H](C)C(=O)N[C@@H](CC(C)C)C(=O)O)c2ccccc21`, the inhibition at 128 µM was 7.7%.

Take `COC(=O)[C@@H](NC(=O)c1ccc(/C=C2\SC(=O)N(CC(=O)NOCc3ccccc3)C2=O)cc1)C(C)C`: the inhibition at 128 µM stood at 11.2%. In the case of `C=CCONC(=O)Cn1ccc(C(=O)N[C@@H](C)C(=O)N[C@H](C(=O)O)C(C)C)c1`, the inhibition at 128 µM was 9.3%.
